Among the test systems are A549; DLD-1; HCC 2998; HCT-116; HOP-92; HT-29; M19-MEL; Malme-3M; NCI-H226; NCI-H522; SK-MEL-2; SN12C; SNB-75; SW-620; UO-31; HL-60; Hs-578T; MDA-MB-231; SR.
What all share (test): NCI anticancer screen, dose series, 48 h

Molecules are shown by their SMILES.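 Method: 48-hour compound exposure of cells in 96-well plates, five concentrations, linear interpolation of endpoints. GI50 = concentration required for 50% inhibition of growth.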 The source made the active and inactive calls. Rule as the data show it: active = GI50 up to about 1.1 µM and inactive = higher. Some results are limits rather than exact numbers.

Regarding `CCOC(=O)c1cc(=O)n(C)c(=O)n1C`, the GI50 with A549, with DLD-1, in the test on HCC 2998, in the test on HCT-116, in the test on HOP-92 and in the test with HT-29 was > 100 µM (inactive) throughout. Also, the GI50 in the test with M19-MEL, in the test on Malme-3M, in the test on NCI-H226, with NCI-H522, with SK-MEL-2 and with SN12C was > 100 µM (inactive) in each case. Moreover, the GI50 with SNB-75, in the test with SW-620 and with UO-31 was > 100 µM (inactive) in each case.

For the molecule `S=c1[nH]c2ccc(Br)cc2c(=S)s1`, the GI50 in the test on A549 was 30.6 µM (inactive); in the test on HCC 2998, 26.1 µM (inactive); with HCT-116, 21.5 µM (inactive); with HL-60 it was 21.6 µM (inactive); with HOP-92 it was 16.6 µM (inactive); with HT-29, 24.4 µM (inactive). Further, the GI50 in the test with Hs-578T is 40.5 µM (inactive); in the test on MDA-MB-231, 22.8 µM (inactive); in the test on Malme-3M, 33.3 µM (inactive); with NCI-H226 it was 28.7 µM (inactive); in the test on NCI-H522, 25.1 µM (inactive); in the test on SK-MEL-2, 20.6 µM (inactive). For the same molecule, the GI50 in the test on SN12C is 19.9 µM (inactive); with SNB-75, 28.1 µM (inactive); in the test on SR it was 38.5 µM (inactive); with SW-620, 30.8 µM (inactive); in the test with UO-31, 22.1 µM (inactive).

Regarding `OCC(O)C(OC1OC(CO)C(O)C(O)C1O)c1nn(-c2ccccc2)c2nc3cc(Cl)c(Cl)cc3cc12` (centres undefined), the GI50 in the test on DLD-1, with HCC 2998, with HCT-116, in the test on HT-29, in the test on M19-MEL and in the test on Malme-3M was > 100 µM (inactive) throughout. The GI50 with NCI-H522 was 63 µM (inactive); in the test with SN12C, > 100 µM (inactive); in the test on SNB-75 it was > 100 µM (inactive); with SR, > 100 µM (inactive); in the test with UO-31 it was > 100 µM (inactive).

For `N#Cc1ccccc1NC(=O)/C(=N\N)C(C(=O)c1ccncc1)C1OC(=O)c2ccccc21` (centres undefined), the GI50 with A549, in the test with HCC 2998, in the test with HCT-116, with HL-60, in the test on HOP-92 and with HT-29 was > 100 µM (inactive) in each case. The GI50 in the test with M19-MEL, with Malme-3M, in the test with NCI-H226, with NCI-H522, with SK-MEL-2 and in the test on SN12C was > 100 µM (inactive) throughout. Besides, the GI50 with SR, in the test on SW-620 and with UO-31 was > 100 µM (inactive) in each case.

With `COc1cc([C@@H]2c3cc4c(cc3[C@@H](Nc3ccc([N+](=O)[O-])cc3C(=O)c3ccccc3)[C@H]3COC(=O)[C@H]23)OCO4)cc(OC)c1OC`, the GI50 with A549 was 0.446 µM (active); with HCC 2998, 0.436 µM (active); in the test on HCT-116, 0.23 µM (active); in the test with HL-60, 0.211 µM (active); with HOP-92, 8.05 µM (inactive); in the test on HT-29, 0.32 µM (active). Besides, the GI50 is 5.05 µM (inactive) with Hs-578T; 0.548 µM (active) in the test on MDA-MB-231; 0.481 µM (active) in the test on Malme-3M; 0.726 µM (active) in the test with NCI-H226; 0.16 µM (active) in the test with NCI-H522; 3.28 µM (inactive) in the test on SK-MEL-2. The GI50 in the test with SN12C is 0.416 µM (active); in the test on SNB-75, > 100 µM (inactive); in the test on SR, 0.177 µM (active); in the test with SW-620, 0.233 µM (active); in the test with UO-31, 0.23 µM (active).

Turning to `O=[N+]([O-])c1ccc(/C(=N/c2ccccc2)SS/C(=N\c2ccccc2)c2ccc([N+](=O)[O-])o2)o1`, the GI50 in the test with A549 is 1.91 µM (inactive); in the test on HCC 2998, 1.59 µM (inactive); in the test on HCT-116 it was 1.5 µM (inactive); in the test with HL-60 it was 2.09 µM (inactive); in the test with HOP-92 it was 2.93 µM (inactive); with HT-29 it was 1.35 µM (inactive). The GI50 was 2.32 µM (inactive) in the test on Hs-578T; 2.74 µM (inactive) with MDA-MB-231; 2.31 µM (inactive) with Malme-3M; 18.7 µM (inactive) with NCI-H226; 0.243 µM (active) in the test with NCI-H522; 2.51 µM (inactive) with SK-MEL-2. The GI50 with SN12C was 1.94 µM (inactive); in the test on SNB-75, 1.66 µM (inactive); with SR, 0.425 µM (active); in the test on SW-620 it was 0.425 µM (active); in the test on UO-31, 1.47 µM (inactive).

`CCCCCCCCCCCCN(CC(O)C(O)C(OC1OC(CO)C(O)C(O)C1O)C(O)CO)C(=O)CCCCCCCCCCC` (centres undefined): the GI50 in the test on A549 is 23.6 µM (inactive); in the test on HCC 2998 it was 18.4 µM (inactive); with HCT-116, 19.5 µM (inactive); in the test on HL-60, 33.7 µM (inactive); in the test with HOP-92, 21.9 µM (inactive); in the test on HT-29, 19 µM (inactive). In addition, the GI50 in the test with Hs-578T was 26.3 µM (inactive); in the test on MDA-MB-231, 22.6 µM (inactive); with Malme-3M it was 18.5 µM (inactive); in the test on NCI-H226, 23.4 µM (inactive); in the test on NCI-H522, 24.1 µM (inactive); in the test on SK-MEL-2, 23 µM (inactive). Further, the GI50 with SN12C was 22.1 µM (inactive); in the test on SNB-75 it was 18.5 µM (inactive); with SR, 33.1 µM (inactive); in the test with SW-620 it was 19 µM (inactive); in the test with UO-31, 21.5 µM (inactive).

Consider `Nc1ncnc2c1ncn2C1OC(CO)C(O)C1NS(=O)(=O)c1ccccc1` (centres undefined), for which the GI50 in the test on A549, in the test with HCC 2998, in the test on HCT-116, with HL-60, in the test on HOP-92 and with HT-29 was > 100 µM (inactive) throughout. Besides, the GI50 in the test with Hs-578T, in the test with MDA-MB-231, in the test on Malme-3M, with NCI-H226, with NCI-H522 and in the test on SK-MEL-2 was > 100 µM (inactive) in each case. For the same molecule, the GI50 in the test with SN12C, in the test on SNB-75, in the test with SR, in the test with SW-620 and in the test with UO-31 was > 100 µM (inactive) in each case.

As to `CCC1C(c2cc(OC)c(OC)c(OC)c2)c2cc3c(cc2OC1N1CCCC1)OCO3` (centres undefined), the GI50 with A549 was 2.76 µM (inactive); in the test with HCC 2998, 2.74 µM (inactive); with HCT-116, 1.32 µM (inactive); in the test on HL-60 it was 1.57 µM (inactive); in the test with HOP-92, 4.18 µM (inactive); in the test with HT-29, 1.37 µM (inactive). Moreover, the GI50 in the test with Hs-578T is 1.36 µM (inactive); in the test with MDA-MB-231, 3.83 µM (inactive); in the test with Malme-3M, 6.98 µM (inactive); in the test on NCI-H226 it was 3.08 µM (inactive); in the test with NCI-H522 it was 2.29 µM (inactive); with SK-MEL-2, 1.98 µM (inactive). Also, the GI50 with SN12C was 4.36 µM (inactive); with SNB-75, 2.46 µM (inactive); in the test on SR it was 1.17 µM (inactive); with SW-620, 1.21 µM (inactive); in the test with UO-31 it was 4.1 µM (inactive).

As to `Cc1ccc(S(=O)(=O)N/N=C/C(Br)=C(/Br)C(=O)O)cc1`, the GI50 was 19.5 µM (inactive) in the test on A549; 4.29 µM (inactive) in the test with HCC 2998; 1.91 µM (inactive) in the test with HCT-116; 1.93 µM (inactive) with HL-60; 11.3 µM (inactive) in the test on HOP-92; 5.16 µM (inactive) in the test with HT-29. Further, the GI50 is 10.7 µM (inactive) with Hs-578T; 14.8 µM (inactive) with MDA-MB-231; 4.39 µM (inactive) with Malme-3M; 8.55 µM (inactive) in the test with NCI-H226; 1.99 µM (inactive) with NCI-H522; 14.6 µM (inactive) with SK-MEL-2. Besides, the GI50 in the test on SN12C is 9.93 µM (inactive); with SNB-75, 22.1 µM (inactive); in the test on SR, 0.321 µM (active); with SW-620, 2.2 µM (inactive); with UO-31, 4.66 µM (inactive).

As to `CC(C)NC(=O)OCc1c(COC(=O)NC(C)C)c(-c2ccc[n+](COC(=O)CC(C)(C)C)c2)n2c1CCC2`, the GI50 in the test with A549, with HCC 2998, in the test with HCT-116, with HL-60, with HOP-92 and in the test with HT-29 was > 100 µM (inactive) throughout. Also, the GI50 in the test on Hs-578T was 87.7 µM (inactive); in the test on MDA-MB-231 it was > 100 µM (inactive); in the test with Malme-3M, > 100 µM (inactive); with NCI-H226 it was > 100 µM (inactive); with NCI-H522, 31.6 µM (inactive); in the test with SK-MEL-2, > 100 µM (inactive). Moreover, the GI50 is 73.8 µM (inactive) in the test with SN12C; 67.6 µM (inactive) in the test on SNB-75; 71.1 µM (inactive) with SR; > 100 µM (inactive) in the test with SW-620; 93.8 µM (inactive) with UO-31.

Take `O=C1OC(OC/C(Br)=C(\Br)COC2OC(=O)C(Cl)=C2Cl)C(Cl)=C1Cl` (centres undefined): the GI50 in the test on A549 was 14.9 µM (inactive); in the test on HCC 2998 it was 17.9 µM (inactive); in the test with HCT-116, 1.86 µM (inactive); with HL-60, 0.324 µM (active); in the test with HOP-92, 1.05 µM (active); in the test with HT-29, 2.55 µM (inactive). The GI50 in the test with Hs-578T is 5.57 µM (inactive); in the test with MDA-MB-231 it was 4.74 µM (inactive); in the test on Malme-3M, 2.55 µM (inactive); in the test on NCI-H226 it was 12.8 µM (inactive); in the test on NCI-H522, 1.71 µM (inactive); in the test on SK-MEL-2, 19.5 µM (inactive). Moreover, the GI50 in the test with SN12C was 5.64 µM (inactive); in the test with SNB-75, 15.9 µM (inactive); in the test on SR, 0.9 µM (active); in the test with SW-620 it was 2.39 µM (inactive); in the test with UO-31, 3.18 µM (inactive).

(Values after ChEMBL document CHEMBL1201862, “PubChem BioAssay data set” (2004).)
